{
  "source": "patent US5374661A",
  "about": "(Sano Corporation, priority 1993, dated 1994)",
  "origin": "cited, not measured here",
  "key": {"[1]": {"settings": "oral"}, "[2]": {"test_system": "cyclooxygenase"}, "[3]": {"test_system": "lipoxygenase pathway"}},
  "data": [
    {"smiles": "O=C(O)Cc1ccccc1Nc1c(Cl)cccc1Cl", "note": "[Diclofenac]", "values": [
      {"measurement": "less frequent side effects", "setting": "[1]", "result": "abdominal distension, flatulence and peptic ulcers with bleeding"},
      {"measurement": "most common gastrointestinal side effects", "setting": "[1]", "result": "nausea, vomiting, abdominal pain, dyspepsia and diarrhea"},
      {"measurement": "inhibition of cyclooxygenase pathway (in words)", "setting": "[2]", "result": "inhibits the cyclooxygenase pathway with subsequent reduction in prostaglandin and thromboxane production"},
      {"measurement": "inhibition of lipoxygenase pathway (in words)", "setting": "[3]", "result": "may inhibit the lipoxygenase pathway with subsequent reduction in leukotriene production"}
    ]}
  ]
}
